Laboratory results taken from the supplement of paper PMC10307832.

Columns and labels:
Test in all cases: relative viability (nuclei count vs DMSO), 5 days (fraction); higher = more cells survive
[1] = compound: C1CSC2=C(C(=O)N1)SC3=C2C=C(C=C3)O [kb NB 142-70] + CCNC(=O)c1noc(-c2cc(C(C)C)c(O)cc2O)c1-c1ccc(CN2CCOCC2)cc1 [Luminespib] (partner 0.01 µM)
Method in brief: (§1)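 Lung cancer cell lines in 1536-well plates got either a single drug or a fixed anchor-drug dose together with five library-drug doses (not always all listed) in √10 steps, by pin tool, on the day after seeding. Nuclei were counted after 5 days, and relative viability is the treated-to-vehicle ratio of nuclei counts. Values are medians of duplicate plates.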

[2] = compound: C1CSC2=C(C(=O)N1)SC3=C2C=C(C=C3)O [kb NB 142-70] + COc1cc2c(Oc3ccc(NC(=O)C4(C(=O)Nc5ccc(F)cc5)CC4)cc3F)ccnc2cc1OCCCN1CCOCC1 [Foretinib] (partner 0.25 µM)
Method in brief: as §1

[3] = compound: C1CSC2=C(C(=O)N1)SC3=C2C=C(C=C3)O [kb NB 142-70] + CS(=O)(=O)N1CCN(Cc2cc3nc(-c4cccc5[nH]ncc45)nc(N4CCOCC4)c3s2)CC1 [Pictilisib] (partner 1 µM)
Method in brief: as §1

[4] = compound: NCC(=O)Nc1ccc(-n2nc(C(F)(F)F)cc2-c2ccc3c(ccc4ccccc43)c2)cc1 + C[C@]1(O)C[C@@H](c2nc(-c3ccc4ccc(-c5ccccc5)nc4c3)c3c(N)nccn32)C1 [Linsitinib] (partner 1 µM)
Method in brief: as §1

[5] = compound: NCC(=O)Nc1ccc(-n2nc(C(F)(F)F)cc2-c2ccc3c(ccc4ccccc43)c2)cc1 + Cc1cc(Nc2cc(N3CCN(C)CC3)nc(Sc3ccc(NC(=O)C4CC4)cc3)n2)n[nH]1 [Tozasertib] (partner 0.1 µM)
Method in brief: as §1

| Cell Line | relative viability ([1]; first compound 0.1 µM) | relative viability ([1]; first compound 1 µM) | relative viability ([1]; first compound 3.162 µM) | relative viability ([2]; first compound 0.1 µM) | relative viability ([2]; first compound 1 µM) | relative viability ([2]; first compound 3.162 µM) | relative viability ([3]; first compound 0.1 µM) | relative viability ([3]; first compound 1 µM) | relative viability ([3]; first compound 3.162 µM) | relative viability ([4]; first compound 0.02 µM) | relative viability ([4]; first compound 0.06325 µM) | relative viability ([4]; first compound 0.2 µM) | relative viability ([4]; first compound 0.6325 µM) | relative viability ([4]; first compound 2 µM) | relative viability ([5]; first compound 0.02 µM) | relative viability ([5]; first compound 0.06325 µM) | relative viability ([5]; first compound 0.2 µM) | relative viability ([5]; first compound 0.6325 µM) | relative viability ([5]; first compound 2 µM) |
| --- | --- | --- | --- | --- | --- | --- | --- | --- | --- | --- | --- | --- | --- | --- | --- | --- | --- | --- | --- |
| NCI-H3122 | 0.0874 | 0.075 | 0.0881 | 0.956 | 0.926 | 0.942 | 0.578 | 0.649 | 0.551 | 1.06 | 1.09 | 1.03 | 1.04 | 1.04 | 0.412 | 0.431 | 0.391 | 0.366 | 0.236 |
| NCI-H1975 | 0.286 | 0.197 | 0.106 | 0.92 | 0.928 | 0.566 | 0.263 | 0.264 | 0.178 | 0.927 | 0.92 | 0.973 | 0.983 | 0.921 | 0.7 | 0.841 | 0.839 | 0.726 | 0.747 |
| NCI-H1944 | 0.708 | 0.726 | 0.8 | 0.883 | 0.934 | 0.998 | 0.358 | 0.375 | 0.41 | 1.14 | 1.21 | 1.16 | 1.11 | 1.3 | 0.239 | 0.264 | 0.264 | 0.26 | 0.27 |
| LU99A | 0.272 | 0.246 | 0.265 | 0.781 | 0.765 | 0.569 | 0.305 | 0.294 | 0.298 | 0.556 | 0.571 | 0.555 | 0.618 | 0.532 | 0.241 | 0.273 | 0.259 | 0.271 | 0.265 |
| SW 1573 | 0.21 | 0.413 | 0.149 | 0.892 | 0.797 | 0.605 | 0.49 | 0.337 | 0.26 | 0.851 | 0.748 | 0.863 | 0.846 | 0.789 | 0.244 | 0.15 | 0.272 | 0.228 | 0.182 |
| NCI-H2347 | 0.387 | 0.431 | 0.387 | 0.744 | 1.21 | 0.72 | 0.874 | 0.659 | 0.324 | 0.953 | 0.98 | 1.04 | 1.07 | 1.01 | 0.586 | 0.71 | 0.482 | 0.618 | 0.73 |
| NCI-H2009 | 1.15 | 1.05 | 0.685 | 1.2 | 1.22 | 0.872 | 0.857 | 0.814 | 0.564 | 1.22 | 1.18 | 1.23 | 1.21 | 1.12 | 0.821 | 0.715 | 0.772 | 0.692 | 0.653 |
| HCC-44 | 1.03 | 1 | 0.405 |  |  |  | 0.566 | 0.622 | 0.646 | 0.648 | 0.688 | 0.697 | 0.632 | 0.652 | 1.03 | 1.26 | 0.879 | 0.803 | 0.829 |
| HCC-78 |  |  |  | 0.496 | 0.585 | 0.614 | 0.213 | 0.216 | 0.181 | 0.572 | 0.563 | 0.498 | 0.49 | 0.541 | 0.408 | 0.415 | 0.501 | 0.403 | 0.411 |
| NCI-H1299 |  |  |  | 1.08 | 1.12 | 1.11 | 0.802 | 0.889 | 0.32 | 0.937 | 0.971 | 1.05 | 0.929 | 0.999 |  |  |  |  |  |
| NCI-H1650 | 0.204 | 0.19 | 0.18 | 1.44 | 1.23 | 1.18 | 0.577 | 0.539 | 0.613 |  |  |  |  |  | 0.389 | 0.438 |  | 0.453 | 0.347 |
| ChaGo-K-1 | 0.664 | 0.638 | 0.448 | 0.89 | 0.967 | 0.862 | 0.894 | 0.807 | 0.523 |  |  |  |  |  | 0.21 | 0.223 | 0.241 | 0.251 | 0.231 |
| SW 900 | 0.187 | 0.181 | 0.177 | 1.06 | 1.2 | 0.436 |  |  |  |  |  |  |  |  |  | 0.509 | 0.594 | 0.533 | 0.511 |
| NCI-H1563 | 0.597 | 0.498 | 0.538 | 0.95 | 0.986 | 0.935 | 0.654 | 0.674 | 0.634 | 1.33 | 1.22 | 1.2 | 1.19 | 1.28 |  |  |  |  |  |
| A549 |  |  |  | 0.997 | 0.95 | 0.563 | 0.474 | 0.498 | 0.114 | 0.626 | 0.599 | 0.608 | 0.579 | 0.614 |  |  |  |  |  |
| NCI-H2342 | 0.625 | 0.761 | 0.719 | 0.96 | 1.03 | 0.978 |  |  |  |  |  |  |  |  | 0.652 | 0.676 | 0.45 | 0.448 | 0.492 |
| NCI-H2170 | 0.578 | 0.728 | 0.521 | 0.996 | 1.07 | 0.953 | 0.299 | 0.275 | 0.227 |  |  |  |  |  | 0.743 | 0.726 | 0.779 | 0.799 | 0.771 |
| NCI-H1623 | 0.427 | 0.476 | 0.594 | 0.932 | 0.843 | 0.722 |  |  |  |  |  |  |  |  | 0.407 | 0.429 | 0.464 | 0.396 | 0.488 |
| NCI-H522 | 1.18 | 1.03 | 0.974 |  |  |  |  |  |  |  |  |  |  |  |  | 0.589 | 0.537 | 0.505 | 0.516 |
| IA-LM |  |  |  | 1.31 | 1.34 | 1.37 | 0.412 | 0.529 | 0.51 | 0.802 | 0.39 | 0.558 | 0.706 | 0.539 |  |  |  |  |  |
| EBC-1 |  |  |  | 0.0986 | 0.12 | 0.0991 | 0.369 | 0.398 | 0.265 | 0.888 | 0.856 | 0.892 | 0.899 | 0.895 |  |  |  |  |  |
